Patent EP3782997A1, “FUSED PYRIMIDINE COMPOUNDS AND PHARMACEUTICAL COMPOSITIONS THEREOF FOR THE TREATMENT OF FIBROTIC DISEASES” (Galapagos N.V., priority 2019, dated 2021)

Molecular target: hENPP2 (Homo sapiens, UniProt Q13822)
Assay: Human ENPP2 (hENPP2) biochemical assay using LPC as substrate
Details: 150 µM LPC (palmitoyl 16:0), 37°C for 30 min
Procedure: The principle of the assay conswasts in quantifying the released choline with an enzymatic method using choline oxidase and peroxidase. Choline oxydation by choline oxydase releases betaine and peroxide. The latter was quantified in presence of HRP that converts the peroxide detection agent TOOS (CAS# 82692-93-1) and 4-aminoantipyrine into quinoneimine dye. The appearance of quinoneimine dye was measured spectrophotometrically at 555 nm and was proportional to the amount of choline released by ENPP2. Inhibition of ENPP2 results in a decrease of the signal.
Compound IC50 values were determined in a hENPP2 (UniProtKB/SwwassProt Sequence ref Q13822) biochemical assay using LPC as substrate.
5 µL of a dilution series of compound, starting from 50 µM highest concentration, 1/3 dilution, was added to the wells. hENPP2 was used at a final concentration of 1 µg/mL or 3 µg/mL (it will be appreciated by the skilled person that the potency read out was independent of the enzyme concentration). The enzyme was diluted in 50 mM Trwas-HCl pH 8.5, 500 mM NaCl, 5 mM KCl, 10 mM CaCl2, 0.1% fatty acid free BSA in a total volume of 10 µL. The reaction was started by the addition of 10 µL of 150 µM LPC (palmitoyl 16:0; Avanti Polar Lipids, Inc., Cat# 855675) diluted in the same buffer as described above and the mixture was incubated at 37°C for 30 min. The reaction was terminated and choline quantified by the addition of a 25 µL of a mixture containing 0.6 U/mL of choline oxidase, 0.6 U/mL of peroxydase, 1.8 mM TOOS, 1.2 mM amino-antipyrine, 20 mM EGTA (stop-developer solution) diluted in the buffer described above. […] was read on an Envision plate reader (PerkinElmer, Inc.) after an incubation of 30 min at room temperature (excitation 555 nm).

Question: For `COC(=O)[C@H]1CN(C(=O)c2ccc3[nH]nnc3c2)CC[C@H]1N1Cc2cnc(Nc3cc(C)cc(C)c3)nc2C1` (racemic) [Cpd 137, methyl (3S,4R/3R,4S)-1-(1H-benzotriazole-5-carbonyl)-4-[2-(3,5-dimethylanilino)-5,7-dihydropyrrolo[3,4-d]pyrimidin-6-yl]piperidine-3-carboxylate], which IC50 is on record?
Answer: 0.01 to 100 nM

Question: How did the IC50 turn out when `Cc1cc(C)cc(Nc2ncc3c(n2)CN(C2CCN(C(=O)c4ccc5[nH]nnc5c4)C(C)C2)C3)c1` (racemic) [compound 34, 1H-benzotriazol-5-yl-[(2S,4S/2R,4R)-4-[2-(3,5-dimethylanilino)-5,7-dihydropyrrolo[3,4-d]pyrimidin-6-yl]-2-methyl-1-piperidyl]methanone] was run?
Answer: 0.01 to 100 nM

Question: Which IC50 does the source give for `Cc1cc(C)cc(Nc2ncc3c(n2)CN([C@H]2CCN(C(=O)c4ccc5[nH]nnc5c4)C[C@@H]2C)C3)c1` (racemic) [compound 99, 1H-benzotriazol-5-yl-[(3S,4S/3R,4R)-4-[2-(3,5-dimethylanilino)-5,7-dihydropyrrolo[3,4-d]pyrimidin-6-yl]-3-methyl-1-piperidyl]methanone] here?
Answer: 0.01 to 100 nM

Question: For `Cc1cc(C)cc(Nc2ncc3c(n2)CN([C@@H]2CN(C(=O)c4ccc5[nH]nnc5c4)C[C@@H]2F)C3)c1` (racemic) [compound 102, 1H-benzotriazol-5-yl-[(3R,4S/3S,4R)-3-[2-(3,5-dimethylanilino)-5,7-dihydropyrrolo[3,4-d]pyrimidin-6-yl] -4-fluoro-pyrrolidin-1-yl]methanone], which IC50 is on record?
Answer: 500 to 1000 nM

Question: With `Cc1cc(C)cc(Nc2ncc3c(n2)CCN([C@H]2CN(C(=O)c4ccc5[nH]nnc5c4)C[C@H]2F)C3)c1` (racemic) [compound 103, 1H-benzotriazol-5-yl-[(3S,4R/3R,4S)-3-[2-(3,5-dimethylanilino)-7,8-dihydro-5H-pyrido[4,3-d]pyrimidin-6-yl] -4-fluoro-pyrrolidin-1-yl]methanone] as the compound, how does the IC50 read?
Answer: 0.01 to 100 nM

Question: With `COc1cc2[nH]nnc2cc1C(=O)N1CC[C@H](N2Cc3cnc(Nc4cc(C)cc(C)c4)nc3C2)[C@H](C)C1` (racemic) [compound 119, [(3R,4S/3S,4R)-4-[2-(3,5-dimethylanilino)-5,7-dihydropyrrolo[3,4-d]pyrimidin-6-yl]-3-methyl-1-piperidyl]-(6-methoxy-1H-benzotriazol-5-yl)methanone] as the compound, how does the IC50 read?
Answer: 0.01 to 100 nM

Question: With `Cc1cc(C)cc(Nc2ncc3c(n2)CN([C@H]2CCN(C(=O)c4cc5nn[nH]c5cc4F)C[C@H]2C)C3)c1` (racemic) [compound 148, [(3R,4S/3S,4R)-4-[2-(3,5-dimethylanilino)-5,7-dihydropyrrolo[3,4-d]pyrimidin-6-yl]-3-methyl-1-piperidyl]-(6-fluoro-1H-benzotriazol-5-yl)methanone] as the compound, how does the IC50 read?
Answer: 0.01 to 100 nM

Question: Which IC50 does the source give for `Cc1cc(C)cc(Nc2ncc3c(n2)CN([C@H]2CCN(C(=O)c4ccnc(NS(C)(=O)=O)c4)C[C@H]2C)C3)c1` (racemic) [compound 167, N-[4-[(3R,4S/3S,4R)-4-[2-(3,5-dimethylanilino)-5,7-dihydropyrrolo[3,4-d]pyrimidin-6-yl]-3-methyl-piperidine-1-carbonyl]-2-pyridyl]methanesulfonamide] here?
Answer: 0.01 to 100 nM

Question: How did the IC50 turn out when `Cc1cc(C)cc(Nc2ncc3c(n2)CN([C@H]2CCN(C(=O)c4c[nH]nn4)C[C@H]2C)C3)c1` (racemic) [compound 172, [(3R,4S/3S,4R)-4-[2-(3,5-dimethylanilino)-5,7-dihydropyrrolo[3,4-d]pyrimidin-6-yl]-3-methyl-1-piperidyl]-(1H-triazol-4-yl)methanone] was run?
Answer: 0.01 to 100 nM

Question: With `Cc1cc(C)cc(Nc2ncc3c(n2)CN(C2CCN(C(=O)c4ccc5[nH]nnc5c4)CC2O)C3)c1` (single isomer, unassigned) [Cpd 110, 1H-benzotriazol-5-yl-[4-[2-(3,5-dimethylanilino)-5,7-dihydropyrrolo[3,4-d]pyrimidin-6-yl]-3-hydroxy-1-piperidyl]methanone] as the compound, how does the IC50 read?
Answer: 0.01 to 100 nM

Question: `Cc1cc(C)cc(Nc2ncc3c(n2)CN(C2CN(C(=O)c4ccc5[nH]nnc5c4)CCC2O)C3)c1` (single isomer, unassigned) [Cpd 111, 1H-benzotriazol-5-yl-[3-[2-(3,5-dimethylanilino)-5,7-dihydropyrrolo[3,4-d]pyrimidin-6-yl]-4-hydroxy-1-piperidyl]methanone] was tested. Which IC50 did it give?
Answer: 500 to 1000 nM

Question: With `COC(=O)[C@H]1CN(C(=O)c2ccc3[nH]nnc3c2)CC[C@@H]1N1Cc2cnc(Nc3cc(C)cc(C)c3)nc2C1` (single isomer, unassigned) [Cpd 136] as the compound, how does the IC50 read?
Answer: 0.01 to 100 nM

Question: With `CCOc1cc2[nH]nnc2cc1C(=O)N1CC[C@H](N2Cc3cnc(Nc4cc(C)cc(C)c4)nc3C2)C[C@H]1C` (single isomer, unassigned) [Cpd 138] as the compound, how does the IC50 read?
Answer: 0.01 to 100 nM

Question: How did the IC50 turn out when `CCOc1cc2[nH]nnc2cc1C(=O)N1CC[C@@H](N2Cc3cnc(Nc4cc(C)cc(C)c4)nc3C2)C[C@H]1C` (single isomer, unassigned) [Cpd 139] was run?
Answer: 0.01 to 100 nM

Question: How did the IC50 turn out when `C[C@@H]1C[C@@H](N2Cc3cnc(Nc4ccc(OC(F)(F)F)cc4)nc3C2)CCN1C(=O)c1ccc2[nH]nnc2c1` (single isomer, unassigned) [Cpd 164] was run?
Answer: 0.01 to 100 nM

Question: With `C[C@@H]1C[C@H](N2Cc3cnc(Nc4ccc(OC(F)(F)F)cc4)nc3C2)CCN1C(=O)c1ccc2[nH]nnc2c1` (single isomer, unassigned) [Cpd 169] as the compound, how does the IC50 read?
Answer: 0.01 to 100 nM

Question: For `Cc1cc(C)cc(Nc2ncc3c(n2)CCN(C2CN(C(=O)c4ccc5[nH]c(=O)oc5c4)C2)C3)c1` [Cpd 1, 6-[3-[2-(3,S-dimethylanilino)-7,8-dihydro-5H-pyrido[4,3-d]pyrimidin-6-yl]azetidine-1-carbonyl]-3H-1,3-benzoxazol-2-one], which IC50 is on record?
Answer: 0.01 to 100 nM

Question: Which IC50 does the source give for `Cc1cc(C)cc(Nc2ncc3c(n2)CN(C2CN(C(=O)c4ccc5[nH]c(=O)oc5c4)C2)C3)c1` [Cpd 3, 6-[3-[2-(3,5-dimethylanilino)-5,7-dihydropyrrolo[3,4-d]pyrimidin-6-yl]azetidine-1-carbonyl]-3H-1,3-benzoxazol-2-one] here?
Answer: 0.01 to 100 nM

Question: For `Cc1cc(C)cc(Nc2ncc3c(n2)CN(C2CN(C(=O)c4cccc(C(=O)O)c4)C2)C3)c1` [Cpd 25, 3-[3-[2-(3,5-dimethylanilino)-5,7-dihydropyrrolo[3,4-d]pyrimidin-6-yl]azetidine-1-carbonyl]benzoic acid], which IC50 is on record?
Answer: > 1000 nM

Question: `Cc1cc(C)nc(Nc2ncc3c(n2)CN(C2CCN(C(=O)c4ccc5[nH]c(=O)oc5c4)CC2)C3)c1` [Cpd 60, 6-[4-[2-[(4,6-dimethyl-2-pyridyl)amino]-5,7-dihydropyrrolo[3,4-d]pyrimidin-6-yl]piperidine-1-carbonyl]-3H-1,3-benzoxazol-2-one] was tested. Which IC50 did it give?
Answer: 100 to 500 nM

Question: `Cc1cc(C)cc(Nc2ncc3c(n2)CN(C2CCN(C(=O)c4cnc5[nH]nnc5c4)CC2)C3)c1` [Cpd 66, [4-[2-(3,5-dimethylanilino)-5,7-dihydropyrrolo[3,4-d]pyrimidin-6-yl]-1-piperidyl]-(3H-triazolo[4,5-b]pyridin-6-yl)methanone] was tested. Which IC50 did it give?
Answer: 500 to 1000 nM

Question: With `Cc1cc(C)cc(Nc2ncc3c(n2)CN(C2CN(C(=O)c4cnc5nn[nH]c5c4)C2)C3)c1` [Cpd 67, [3-[2-(3,5-dimethylanilino)-5,7-dihydropyrrolo[3,4-d]pyrimidin-6-yl]azetidin-1-yl]-(1H-triazolo[4,5-b]pyridin-6-yl)methanone] as the compound, how does the IC50 read?
Answer: > 1000 nM

Question: How did the IC50 turn out when `Cc1cc(C)cc(Nc2ncc3c(n2)CCCN(C2CCN(C(=O)c4cnc5[nH]nnc5c4)CC2)C3)c1` [Cpd 76, [4-[2-(3,5-dimethylanilino)-5,7,8,9-tetrahydropyrimido[5,4-c]azepin-6-yl]-1-piperidyl]-(3H-triazolo[4,5-b]pyridin-6-yl)methanone] was run?
Answer: > 1000 nM

Question: `Cc1cc(C)cc(Nc2ncc3c(n2)CN(C2CN(C(=O)c4ccc5[nH]nnc5n4)C2)C3)c1` [Cpd 86, [3-[2-(3,5-dimethylanilino)-5,7-dihydropyrrolo[3,4-d]pyrimidin-6-yl]azetidin-1-yl]-(1H-triazolo[4,5-b]pyridin-5-yl)methanone] was tested. Which IC50 did it give?
Answer: 0.01 to 100 nM

Question: How did the IC50 turn out when `Cc1cc(C)cc(Nc2ncc3c(n2)CCN(C2CCN(C(=O)c4ccc5[nH]nnc5c4)[C@@H](C)C2)C3)c1` (stereo partly drawn) [Cpd 96, 1H-benzotriazol-5-yl-[(2S)-4-[2-(3,5-dimethylanilino)-7,8-dihydro-5H-pyrido[4,3-d]pyrimidin-6-yl]-2-methyl-1-piperidyl]methanone] was run?
Answer: 0.01 to 100 nM

Question: `Cc1cc(C)cc(Nc2ncc3c(n2)CCN([C@@H]2CCN(C(=O)c4ccc5[nH]nnc5c4)[C@H](C)C2)C3=O)c1` [Cpd 97, 6-[(2R,4R)-1-(1H-benzotriazole-5-carbonyl)-2-methyl-4-piperidyl]-2-(3,5-dimethylanilino)-7,8-dihydropyrido[4,3-d]pyrimidin-5-one] was tested. Which IC50 did it give?
Answer: 100 to 500 nM

Question: Which IC50 does the source give for `Cc1cc(C)cc(Nc2ncc3c(n2)CN(C2CCN(C(=O)c4ccc5[nH]nnc5c4)C(C)(C)C2)C3)c1` (stereo not drawn) [Cpd 100, 1H-benzotriazol-5-yl-[4-[2-(3,5-dimethylanilino)-5,7-dihydropyrrolo[3,4-d]pyrimidin-6-yl]-2,2-dimethyl-1-piperidyl]methanone] here?
Answer: 0.01 to 100 nM
